Test results from ChEMBL document CHEMBL4145454, “Discovery of 2,4-diarylaminopyrimidines bearing a resorcinol motif as novel ALK inhibitors to overcome the G1202R resistant mutation” (Eur J Med Chem, 2018).
The source made the active and inactive calls. No cut-off for these calls is given here.

What was measured:
[1] = target: ALK tyrosine kinase receptor (Homo sapiens, UniProt Q9UM73, G1202R)
[2] = target: T1, ALK tyrosine kinase receptor (Homo sapiens, UniProt Q9UM73)
NCI-H3122 [3] = assay: cells; conditions: Homo sapiens, NCI-H3122, 72 h
Description: Antiproliferative activity against human NCI-H3122 cells after 72 hrs by SRB or CCK8 assay

[4] = target: ALK tyrosine kinase receptor (Homo sapiens, UniProt Q9UM73, T1151M)
[5] = target: ALK tyrosine kinase receptor (Homo sapiens, UniProt Q9UM73, S1206Y)
[6] = target: ALK tyrosine kinase receptor (Homo sapiens, UniProt Q9UM73, R1275Q)
[7] = target: ALK tyrosine kinase receptor (Homo sapiens, UniProt Q9UM73, L1152R)
NCI-H3122 [8] = assay: Induction of apoptosis in human NCI-H3122 cells at 20 to 80 nM after 48 hrs by Annexin V-FITC/propidium iodide staining based flow cytometry; assay type: functional, cell-based
SU-DHL-1 [9] = assay: Induction of apoptosis in human SU-DHL1 cells at 20 to 80 nM after 48 hrs by Annexin V-FITC/propidium iodide staining based flow cytometry; assay type: functional, cell-based
SU-DHL-1 [10] = assay: cells; conditions: Homo sapiens, SU-DHL-1, 72 h
Description: Antiproliferative activity against human SU-DHL1 cells harboring NPM-ALK after 72 hrs by SRB or CCK8 assay

KARPAS-299 = assay: cells; conditions: Homo sapiens, KARPAS-299, 72 h
Description: Antiproliferative activity against human KARPAS299 cells harboring NPM-ALK after 72 hrs by SRB or CCK8 assay

BaF3 [11] = assay: cells; conditions: Mus musculus, BaF3, 72 h
Description: Antiproliferative activity against mouse BAF3 cells harboring EML4-ALK after 72 hrs by SRB or CCK8 assay

BaF3 [12] = assay: cells; conditions: Mus musculus, BaF3, 72 h; remark: listed apart in the source
BaF3 [13] = assay: cells; conditions: Mus musculus, BaF3, 72 h; remark: listed apart in the source
HCC78 = assay: cells; conditions: Homo sapiens, HCC78, 72 h
Description: Antiproliferative activity against human HCC78 cells harboring SLC34A2-ROS1 after 72 hrs by SRB or CCK8 assay

BaF3 [14] = assay: cells; conditions: Mus musculus, BaF3, 72 h; remark: listed apart in the source
Description: Antiproliferative activity against mouse BAF3 cells harboring CD74-ROS1 after 72 hrs by SRB or CCK8 assay

BaF3 [15] = assay: cells; conditions: Mus musculus, BaF3, 72 h; remark: listed apart in the source
Description: Antiproliferative activity against mouse BAF3 cells harboring CD74-ROS1 G2032R mutant after 72 hrs by SRB or CCK8 assay

BaF3 [16] = assay: cells; conditions: Mus musculus, BaF3, 72 h; remark: listed apart in the source
Description: Antiproliferative activity against IL3-stimulated mouse BAF3 cells after 72 hrs by SRB or CCK8 assay

[17] = target: T1, ALK tyrosine kinase receptor; conditions: 20 to 200 nM
Description: Inhibition of ALK phosphorylation at Y1278 residue in human SU-DHL1 cells at 20 to 200 nM after 1 hr by Western blot analysis

[18] = target: T1, ALK tyrosine kinase receptor; conditions: 20 to 200 nM; remark: listed apart in the source
Description: Inhibition of ALK in human SU-DHL1 cells assessed as reduction in STAT3 phosphorylation at Y705 residue at 20 to 200 nM after 1 hr by Western blot analysis

[19] = target: T1, ALK tyrosine kinase receptor; conditions: 20 to 200 nM; remark: listed apart in the source
Description: Inhibition of ALK in human SU-DHL1 cells assessed as reduction in Akt phosphorylation at S473 residue at 20 to 200 nM after 1 hr by Western blot analysis

[20] = target: T1, ALK tyrosine kinase receptor; conditions: 20 to 200 nM; remark: listed apart in the source
Description: Inhibition of ALK in human SU-DHL1 cells assessed as reduction in ERK phosphorylation at T202//Y204 residues at 20 to 200 nM after 1 hr by Western blot analysis

[21] = target: T1, ALK tyrosine kinase receptor; conditions: NCI-H3122, 20 to 200 nM
Description: Inhibition of ALK phosphorylation at Y1278 residue in human NCI-H3122 cells at 20 to 200 nM after 1 hr by Western blot analysis

[22] = target: T1, ALK tyrosine kinase receptor; conditions: NCI-H3122, 20 to 200 nM; remark: listed apart in the source
Description: Inhibition of ALK in human NCI-H3122 cells assessed as reduction in STAT3 phosphorylation at Y705 residue at 20 to 200 nM after 1 hr by Western blot analysis

[23] = target: T1, ALK tyrosine kinase receptor; conditions: NCI-H3122, 20 to 200 nM; remark: listed apart in the source
Description: Inhibition of ALK in human NCI-H3122 cells assessed as reduction in Akt phosphorylation at S473 residue at 20 to 200 nM after 1 hr by Western blot analysis

[24] = target: T1, ALK tyrosine kinase receptor; conditions: NCI-H3122, 20 to 200 nM; remark: listed apart in the source
Description: Inhibition of ALK in human NCI-H3122 cells assessed as reduction in ERK phosphorylation at T202//Y204 residues at 20 to 200 nM after 1 hr by Western blot analysis

COc1ccc(NC(=O)CNC(=O)c2cc(C(C)C)c(O)cc2O)cc1Nc1ncc(Cl)c(Nc2ccccc2P(C)(C)=O)n1
IC50 [1]: 7.8 nM
IC50 [2]: 1.5 nM
IC50 (NCI-H3122 [3]): 99 nM

COc1ccc(NC(=O)C2(NC(=O)c3cc(C(C)C)c(O)cc3O)CC2)cc1Nc1ncc(Cl)c(Nc2ccccc2S(=O)(=O)C(C)C)n1
IC50 [2]: 130 nM
IC50 (NCI-H3122 [3]): 254 nM

COc1ccc(NC(=O)CNC(=O)c2cc(C(C)C)c(O)cc2O)cc1Nc1ncc(Cl)c(Nc2ccccc2S(=O)(=O)C(C)C)n1
IC50 [1]: 1.8 nM
IC50 [4]: 2.2 nM
IC50 [5]: 5.1 nM
IC50 [6]: 2.7 nM
IC50 [7]: 10.6 nM
Activity (NCI-H3122 [8]): Active
Activity (SU-DHL-1 [9]): Active
IC50 [2]: 1.7 nM
IC50 (NCI-H3122 [3]): 6.9 nM
IC50 (SU-DHL-1 [10]): 4.8 nM
IC50 (KARPAS-299): 10.4 nM
IC50 (BaF3 [11]): < 1.5 nM
IC50 (BaF3 [12]): < 1.5 nM
IC50 (BaF3 [13]): < 1.5 nM
IC50 (HCC78): < 1.5 nM
IC50 (BaF3 [14]): 0.2 nM
IC50 (BaF3 [15]): 0.2 nM
IC50 (BaF3 [16]): > 1000 nM

COc1ccc(NC(=O)CNC(=O)c2cc(C(C)C)ccc2O)cc1Nc1ncc(Cl)c(Nc2ccccc2S(=O)(=O)C(C)C)n1
IC50 [1]: 15.3 nM
IC50 [2]: 0.7 nM
IC50 (NCI-H3122 [3]): 4 nM

CC(C)c1cc(C(=O)NCC(=O)Nc2ccc(F)c(Nc3ncc(Cl)c(Nc4ccccc4S(=O)(=O)C(C)C)n3)c2)c(O)cc1O
IC50 [1]: 15.5 nM
IC50 [2]: 1 nM
IC50 (NCI-H3122 [3]): 7.2 nM

CC(C)c1cc(C(=O)NCC(=O)Nc2cccc(Nc3ncc(Cl)c(Nc4cc(S(=O)(=O)C(C)C)nn4C)n3)c2)c(O)cc1O
IC50 [2]: 262 nM
IC50 (NCI-H3122 [3]): > 1000 nM

COc1ccc(Nc2ncc(Cl)c(Nc3ccccc3S(=O)(=O)C(C)C)n2)cc1NC(=O)CNC(=O)c1cc(C(C)C)c(O)cc1O
IC50 [2]: 2.6 nM
IC50 (NCI-H3122 [3]): > 1000 nM

COc1ccc(NC(=O)CNC(=O)c2ccc(O)c(C(C)C)c2)cc1Nc1ncc(Cl)c(Nc2ccccc2S(=O)(=O)C(C)C)n1
IC50 [1]: 6.1 nM
IC50 [2]: 1.4 nM
IC50 (NCI-H3122 [3]): 9.1 nM

COc1ccc(NC(=O)CNC(=O)c2cc(C(C)C)c(OC)cc2O)cc1Nc1ncc(Cl)c(Nc2ccccc2S(=O)(=O)C(C)C)n1
IC50 [2]: 10.5 nM
IC50 (NCI-H3122 [3]): 13.7 nM

C[C@H]1Oc2cc(cnc2N)-c2c(nn(C)c2C#N)CN(C)C(=O)c2ccc(F)cc21 [LORLATINIB]
IC50 (NCI-H3122 [3]): 7.8 nM
IC50 (SU-DHL-1 [10]): 4.9 nM
IC50 (KARPAS-299): 3 nM
IC50 (BaF3 [11]): 2.9 nM
IC50 (BaF3 [12]): 42.4 nM
IC50 (BaF3 [13]): 200 nM
IC50 (HCC78): 357 nM
IC50 (BaF3 [14]): 1.2 nM
IC50 (BaF3 [15]): 262 nM
IC50 (BaF3 [16]): > 1000 nM

CC(C)Oc1ccc(NC(=O)CNC(=O)c2cc(C(C)C)c(O)cc2O)cc1Nc1ncc(Cl)c(Nc2ccccc2S(=O)(=O)C(C)C)n1
IC50 [2]: 3.3 nM
IC50 (NCI-H3122 [3]): 69 nM

Cc1cc(Nc2ncc(Cl)c(Nc3ccccc3S(=O)(=O)C(C)C)n2)c(OC(C)C)cc1C1CCNCC1 [CERITINIB]
inhibition [17]: Active
inhibition [18]: Active
inhibition [19]: Active
inhibition [20]: Active
inhibition [21]: Active
inhibition [22]: Active
inhibition [23]: Active
inhibition [24]: Active
IC50 (NCI-H3122 [3]): 96 nM
IC50 (SU-DHL-1 [10]): 122 nM
IC50 (KARPAS-299): 84 nM
IC50 (BaF3 [11]): 10.7 nM
IC50 (BaF3 [12]): 54.9 nM
IC50 (BaF3 [13]): 726 nM
IC50 (HCC78): > 1000 nM
IC50 (BaF3 [14]): 234 nM
IC50 (BaF3 [15]): > 1000 nM
IC50 (BaF3 [16]): > 1000 nM

COc1ccc(NC(=O)CNC(=O)c2cc(C(C)C)c(O)cc2O)cc1Nc1ncnc(Nc2ccccc2S(=O)(=O)C(C)C)n1
IC50 [2]: 1.3 nM
IC50 (NCI-H3122 [3]): 64 nM

COc1ccc(NC(=O)CNC(=O)c2cc(C(C)C)c(O)cc2OC)cc1Nc1ncc(Cl)c(Nc2ccccc2S(=O)(=O)C(C)C)n1
IC50 [2]: 48 nM
IC50 (NCI-H3122 [3]): 12.8 nM

COc1ccc(NC(=O)C(NC(=O)c2cc(C(C)C)c(O)cc2O)C(C)C)cc1Nc1ncc(Cl)c(Nc2ccccc2S(=O)(=O)C(C)C)n1 (stereo not given)
IC50 [2]: > 1000 nM
IC50 (NCI-H3122 [3]): > 1000 nM

CC(C)Oc1ccc(NC(=O)CNC(=O)c2cc(C(C)C)c(O)cc2O)cc1Nc1nccc(Nc2ccccc2S(=O)(=O)C(C)C)n1
IC50 [2]: 4.2 nM
IC50 (NCI-H3122 [3]): 123 nM

COc1cc(OC)c(C(C)C)cc1C(=O)NCC(=O)Nc1cccc(Nc2ncc(Cl)c(Nc3ccccc3S(=O)(=O)C(C)C)n2)c1
IC50 [2]: > 1000 nM
IC50 (NCI-H3122 [3]): > 1000 nM

COc1ccc(NC(=O)C(Cc2ccccc2)NC(=O)c2cc(C(C)C)c(O)cc2O)cc1Nc1ncc(Cl)c(Nc2ccccc2S(=O)(=O)C(C)C)n1 (stereo not given)
IC50 [1]: 65 nM
IC50 [2]: 7.8 nM
IC50 (NCI-H3122 [3]): 57 nM

CC(C)c1cc(C(=O)NCC(=O)Nc2cccc(Nc3ncc(Cl)c(Nc4ccccc4S(=O)(=O)C(C)C)n3)c2)c(O)cc1O
IC50 [2]: 0.8 nM
IC50 (NCI-H3122 [3]): 84 nM

COc1ccc(NC(=O)C(C)NC(=O)c2cc(C(C)C)c(O)cc2O)cc1Nc1ncc(Cl)c(Nc2ccccc2S(=O)(=O)C(C)C)n1 (stereo not given)
IC50 [2]: 0.7 nM
IC50 (NCI-H3122 [3]): 6.8 nM
